Values joined by “and” are separate entries in the source; they are usually repeats but may differ in a detail not shown here. Identical values can stand only once. Blank lines part the entries; values can stand above or below the compound they belong to.
Assay: solvent given as SMILES

Compound: COc1ccc(-c2csc(/C(C#N)=C\Nc3ccc(C#N)cc3)n2)cc1
emission maximum (in CC#N): 451 nm
emission maximum (in CCO): 444 nm
emission maximum (in CN(C)C=O): 453 nm
emission maximum (in Cc1ccccc1): 441 nm
emission maximum (in ClCCl): 447 nm

Compound: CCN(CC)c1ccc(C2=C3C(C)=CC(C)=[N+]3[B-](F)(F)n3c(C)cc(C)c32)cc1
emission maximum (in CO): 513 nm

Compound: CC(C)(C)c1ccc(-c2c3ccccc3c3n2[B-](F)(F)[N+]2=Cc4c5ccccc5c(-c5ccc(C(C)(C)C)cc5)n4[B-](F)(F)[N+]2=C3)cc1
emission maximum (in CC#N): 601 nm
emission maximum (in CCCCCC): 603 nm
emission maximum (in CN(C)C=O): 607 nm
emission maximum (in Cc1ccccc1): 611 nm
emission maximum (in ClCCl): 608 nm

Compound: Cn1c(/C=C/c2ccc(/C=C/c3nc4ccccc4[nH]3)cc2)[n+](C)c2ccccc21
emission maximum (in C1CCOC1): 576 nm
emission maximum (in CC#N): 576 nm
emission maximum (in CC(C)=O): 580 nm
emission maximum (in CN(C)C=O): 582 nm
emission maximum (in CO): 567 nm
emission maximum (in CS(C)=O): 584 nm
emission maximum (in O): 574 nm

Compound: CCN(CC)c1ccc2c(C(F)(F)F)cc(=O)oc2c1
emission maximum (in C1CCCCC1): 433 nm
emission maximum (in CC#N): 501 nm
emission maximum (in CCO): 509 nm
emission maximum (in CCOC(C)=O): 479 nm
emission maximum (in OCC(O)CO): 524 nm

Compound: N#Cc1ccc(-n2c(-c3ccc(-c4ccc(-n5c6ccccc6c6ccccc65)cc4)s3)nc3c4ccccc4c4ccccc4c32)c2ccccc12
emission maximum (in ClCCl): 400 nm

Compound: Oc1ccc2ccccc2c1-c1nc(-c2ccccc2)c2ccccn12
emission maximum (in C1CCCCC1): 407 nm
emission maximum (in CC#N): 435 nm
emission maximum (in CO): 433 nm
emission maximum (in ClCCl): 467 nm
emission maximum (in O): 440 nm

Compound: F[B-]1(F)n2cccc2C(c2ccc(-c3c4ccccc4c(-c4ccccc4)c4ccccc34)cc2)=C2C=CC=[N+]21
emission maximum (in CC#N): 516 nm
emission maximum (in CCCCCC): 517 nm
emission maximum (in CCO): 516 nm
emission maximum (in CN(C)C=O): 520 nm
emission maximum (in Cc1ccccc1): 524 nm
emission maximum (in ClCCl): 518 nm

Compound: CC(C)(C)c1ccc(-c2nc3c4ccc(-c5ccccc5)cc4c4cc(-c5ccccc5)ccc4c3n2-c2ccc(C(C)(C)C)cc2)cc1
emission maximum (in C1CCOC1): 389 nm
emission maximum (in C1COCCO1): 389 nm
emission maximum (in CC#N): 391 nm
emission maximum (in CCCCCC): 385 nm
emission maximum (in CCCCOCCCC): 386 nm
emission maximum (in CCN(CC)CC): 386 nm
emission maximum (in CCOC(C)=O): 388 nm
emission maximum (in CCOCC): 386 nm
emission maximum (in CN(C)C=O): 392 nm
emission maximum (in Cc1ccccc1): 388 nm
emission maximum (in ClC=C(Cl)Cl): 389 nm
emission maximum (in ClCCl): 390 nm

Compound: F[B-]1(F)n2c(c3ccccc3c2-c2ccccc2)C=C2c3ccccc3C(c3ccccc3)=[N+]21
emission maximum (in C1CCOC1): 662 nm
emission maximum (in ClCCl): 658 nm

Compound: CC(C)(C)c1ccc(-c2cc3c(-c4ccc(C(C)(C)C)cc4)c4cccc5c(-c6ccc(C(C)(C)C)cc6)cc6c(-c7ccc(C(C)(C)C)cc7)c7cccc2c7c3c6c54)cc1
emission maximum (in C1CCCCC1): 463 nm
emission maximum (in CC#N): 464 nm
emission maximum (in CO): 462 nm
emission maximum (in Cc1ccccc1): 467 nm
emission maximum (in ClCCl): 467 nm

Compound: CC(C)(C)c1ccc2c(c1)c1cc(C(C)(C)C)ccc1n2-c1ccc(C#Cc2ccc(C=C(C#N)C#N)cc2)cc1
emission maximum (in CC#N): 490 nm
emission maximum (in CCCCC): 448 nm
emission maximum (in Cc1ccccc1): 554 nm
emission maximum (in ClCCl): 534 nm

Compound: COC1=[N+]2C(=C(c3ccc(C)cc3)c3ccc(OC)n3[B-]2(F)F)C=C1
emission maximum (in C1CCCCC1): 525 nm
emission maximum (in C1CCOC1): 528 nm
emission maximum (in CC#N): 522 nm
emission maximum (in CCOC(C)=O): 526 nm
emission maximum (in CO): 523 nm
emission maximum (in Cc1ccccc1): 530 nm
emission maximum (in ClC(Cl)Cl): 529 nm

Compound: Cc1cc(C)cc(NC(=O)c2sc(Br)nc2C)c1
emission maximum (in C1CCOC1): 413.2 nm
emission maximum (in CC#N): 399 nm
emission maximum (in CCCCCC): 400.6 nm
emission maximum (in CCOC(C)=O): 405.5 nm
emission maximum (in CN(C)C=O): 398.2 nm
emission maximum (in CO): 402 nm
emission maximum (in CS(C)=O): 402.5 nm
emission maximum (in ClC(Cl)Cl): 411.5 nm

Compound: CCCCCCc1ccc(-n2c3c4cccc(OC)c4nc(-c4ccc(C)cc4)c3c3c2c2c(-c4ccc(C)cc4)nc4c(OC)cccc4c2n3-c2ccc(CCCCCC)cc2)cc1
emission maximum (in ClC(Cl)Cl): 464 nm

Compound: CC1(C)c2ccccc2N(c2ccc(C(=C(C#N)C#N)c3ccc(N4c5ccccc5C(C)(C)c5ccccc54)cc3)cc2)c2ccccc21
emission maximum (in Cc1ccccc1): 649 nm

Compound: COc1ccc(-c2cccc3ncc(-c4ccccc4)n23)cc1
emission maximum (in ClCCl): 468 nm

Compound: F[B-]1(F)n2c(cc3oc4ccccc4c32)C(c2ccc(I)cc2)=C2C=c3oc4ccccc4c3=[N+]21
emission maximum (in ClC(Cl)Cl): 647 nm

Compound: CCC1(CC)c2cc(/C=C/c3ccc(/C=C/c4ccc5c(c4)C(CC)(CC)c4cc(N6c7ccccc7Sc7ccccc76)ccc4-5)cc3)ccc2-c2ccc(N3c4ccccc4Sc4ccccc43)cc21
emission maximum (in C1CCOC1): 434 nm
emission maximum (in CC#N): 457 nm
emission maximum (in CCCCCC): 455 nm
emission maximum (in Cc1ccccc1): 462 nm
emission maximum (in ClCCl): 435 nm

Compound: c1ccc2c(c1)ccc1oc3ccc4cc5oc6ccc7ccc8oc9ccc%10ccccc%10c9c8c7c6c5cc4c3c12
emission maximum (in CC#N): 432 nm

Compound: CC1=[N+]2C(=C(c3ccc(N4CCCCC4)cc3)c3ccc(C)n3[B-]2(F)F)C=C1
emission maximum (in C1CCCCC1): 519 nm
emission maximum (in C1CCOC1): 527 nm and 514 nm
emission maximum (in CC#N): 519 nm
emission maximum (in CC(=O)C(C)(C)C): 523 nm
emission maximum (in CC(C)=O): 517 nm
emission maximum (in CCCCCC): 520 nm
emission maximum (in CCOC(C)=O): 518 nm
emission maximum (in CO): 518 nm
emission maximum (in Cc1ccccc1): 593 nm
emission maximum (in ClC(Cl)Cl): 527 nm

Compound: CC(C)c1cccc(C(C)C)c1N1C(=O)c2cc(Oc3ccc(C(C)(C)C)cc3)c3c4c(Oc5ccc(C(C)(C)C)cc5)cc5c6c(cc(Oc7ccc(C(C)(C)C)cc7)c(c7c(Oc8ccc(C(C)(C)C)cc8)cc(c2c37)C1=O)c64)C(=O)N(c1c(C(C)C)cccc1C(C)C)C5=O
emission maximum (in Cc1ccccc1): 611 nm

Compound: CNC1=C2C=CC=[N+]2[B-](F)(F)n2cccc21
emission maximum (in C1CCCCC1): 463 nm
emission maximum (in CC(C)=O): 441.5 nm
emission maximum (in CCO): 439 nm
emission maximum (in CCOC(C)=O): 444.5 nm
emission maximum (in CO): 440 nm
emission maximum (in OCC(F)(F)F): 449 nm

Compound: Cn1c(=O)c(/N=N/c2cc(S(=O)(=O)O)ccc2C(=O)O)c(O)c2ccccc21
emission maximum (in C1CCOC1): 523 nm
emission maximum (in CC(C)=O): 538 nm
emission maximum (in CCOC(C)=O): 528 nm
emission maximum (in CO): 532 nm
emission maximum (in CS(C)=O): 486 nm
emission maximum (in Cc1ccccc1): 509 nm
emission maximum (in ClCCl): 516 nm
emission maximum (in O): 553 nm

Compound: C#CCn1c2ccccc2c2cc(/C=C/c3cc(C)c4n3[B-](F)(F)[N+]3=C(C)C=C(C)C3=C4c3ccc(I)cc3)ccc21
emission maximum (in CC#N): 605 nm
emission maximum (in CS(C)=O): 614 nm
emission maximum (in ClC(Cl)Cl): 607 nm

Compound: CCC1=C(C)C2=C(c3c4ccccc4c(-c4ccccc4)c4ccccc34)c3c(C)c(CC)c(C)n3[B-](F)(F)[N+]2=C1C
emission maximum (in CC#N): 536 nm
emission maximum (in CCCCCC): 539 nm
emission maximum (in CCO): 538 nm
emission maximum (in CN(C)C=O): 539 nm
emission maximum (in Cc1ccccc1): 544 nm
emission maximum (in ClCCl): 543 nm

Continued, values first:

emission maximum (in CCO): 558 nm
emission maximum (in ClCCl): 553 nm
emission maximum (in O): 574 nm
Compound: O=Cc1ccc(-c2ccc(O)c(-c3nc4ccccc4s3)c2)s1

emission maximum (in ClCCl): 430 nm
Compound: CCCCn1c2ccc3ccc4ccccc4c3c2c2c3c(ccc4ccccc43)ccc21

emission maximum (in CCO): 505 nm
Compound: CCOC(=O)c1cc(C(=O)OCC)c2c(C)ccc(OC(=O)OC(C)(C)C)c2n1

emission maximum (in CC#N): 391 nm
Compound: Cc1ccc(-c2ccc(/C=C/c3ccc(F)cc3)cn2)nc1

emission maximum (in CO): 705 nm
emission maximum (in O): 708 nm
Compound: CN(C)c1ccc2c(c1)C(C)(C)C1=CC(=[N+](C)C)C=CC1=C2C#Cc1ccccc1

emission maximum (in CO): 606.35 nm
Compound: c1ccc(C2CSC(c3c4ccc(=[N+]5CCCCC5)cc-4oc4cc(N5CCCCC5)ccc34)SC2)cc1 (stereo unspecified)

emission maximum (in CC#N): 395 nm
Compound: Fc1nc(F)c(F)c(/C=C2/C(c3c(F)c(F)nc(F)c3F)=Cc3ccccc32)c1F

emission maximum (in ClCCl): 490 nm
Compound: F[B-]1(F)OC(c2ccccc2)=Cc2cc3[n+](c[n+]21)[B-](F)(F)OC(c1ccccc1)=C3

emission maximum (in CS(C)=O): 517 nm
Compound: CCOC(=O)C1=C(N)n2c(=O)c3ccccc3c(=O)n2C1c1ccc(C)cc1 (stereo unspecified)

emission maximum (in C1CCOC1): 393 nm
Compound: c1ccc2c(c1)-c1ccccc1C21c2ccccc2-c2oc3c(c21)C1(c2ccccc2-c2ccccc21)c1ccccc1-3

emission maximum (in C1CCCCC1): 451 nm
emission maximum (in C1CCOC1): 513 nm
emission maximum (in CC#N): 453 nm
emission maximum (in CO): 454 nm
emission maximum (in CS(C)=O): 530 nm
emission maximum (in ClCCl): 452 nm
emission maximum (in O): 452 nm
Compound: CC1=N/C(=C\c2ccccc2N)C(=O)N1C

emission maximum (in CN(C)C=O): 408 nm
Compound: Cc1ccc2[nH]c(-c3ccc(-c4ccc(-c5ccc(-c6nc7cc(C)ccc7[nH]6)cc5)c(C)c4)cc3)nc2c1

emission maximum (in C1CCOC1): 456 nm
Compound: N#Cc1ccc(/C=C/c2ccc(C=C(c3ccccc3)c3ccccc3)cc2)cc1

emission maximum (in ClCCl): 430 nm
Compound: CCOC(=O)C1=C(C(=O)OCC)C2(c3ccccc3-c3ccccc32)[C@@H](c2ccccc2)C=C2c3cc(OC)c(OC)cc3CCN21

emission maximum (in CC#N): 419 nm
Compound: Cc1cc2c(ccc3c[n+](C)c(C)cc32)c[n+]1C

emission maximum (in C1CCCCC1): 430 nm
emission maximum (in C1CCOC1): 434 nm
emission maximum (in C1COCCO1): 432 nm
emission maximum (in CC#N): 398 nm
emission maximum (in CCOC(C)=O): 434 nm
emission maximum (in CN(C)C=O): 386 nm
emission maximum (in CO): 390 nm
emission maximum (in ClC(Cl)Cl): 450 nm
Compound: O=C(O)c1ccccc1Nc1ccccc1

emission maximum (in c1ccccc1): 461 nm
Compound: Cc1nc2c(ccc3ccc(O)cc32)oc1=O

emission maximum (in C1CCCCC1): 294.99 nm
Compound: Oc1ccccc1

emission maximum (in CCO): 582 nm
emission maximum (in ClCCl): 575 nm
Compound: Cc1ccccc1-c1c2ccc(=[N+]3CCOCC3)cc-2oc2cc(N3CCOCC3)ccc12

emission maximum (in C1CCCCC1): 391 nm
Compound: COc1ccc(C2=C(c3ccc(OC)cc3)C(C)(C)c3ccccc32)cc1

emission maximum (in CC#N): 493 nm
Compound: Cc1cccc2c1nc1c(=O)n(C)c(=O)nc-1n2C

emission maximum (in ClC(Cl)Cl): 423 nm
Compound: Cc1cc(=O)oc2cc3c4ccc(C(C)(C)C)cc4c4cc(C(C)(C)C)ccc4c3cc12
